From PMC3984256, “A PCNA-Derived Cell Permeable Peptide Selectively Inhibits Neuroblastoma Cell Growth” (PLoS ONE, 2014)
Where a SMILES comes first, the peptide text is derived from it. [ ]: non-standard residue; d: D form.

Assays:
[1] = system: HR-mediated DSB repair, U2OS-derived DR-GFP cells; assay: DSB repair reporter assay, HR (DR-GFP); assay type: cell-based; details: 30 µM, GFP-positive cells 3 d after I-SceI transfection, normalized to R9-srbPep, triplicates
Procedure: The plasmid pCBASce expresses the rare cutting I-SceI meganuclease. The U2OS-derived cell lines, DR-GFP, EJ5-GFP, and SA-GFP contain a stably transfected reporter gene for DSB repair mediated by HR, end joining (EJ), and single-strand annealing (SSA), respectively. These cell lines were cultured in DMEM medium with 10% FBS at 37°C in the presence of 5% CO2.
DR-GFP, EJ5-GFP, and SA-GFP cell lines were seeded at 2.5×10^4 cells/cm^2 in a 12-well plate. Once attached overnight, cells were transfected with 1.2 µg of the pCBASce I-SceI expression plasmid mixed with 3.6 µl of Lipofectamine 2000 (Invitrogen) in 200 µl of Optimem media (Invitrogen). After incubation for 3 h, the media containing transfection complexes was aspirated and replaced with fresh media containing 30 µM of the peptides. The HR, EJ, and SSA-mediated DSB repair, indicated by the restoration of a functional GFP gene in the respective cell lines, were quantified by measuring the relative abundance of GFP-positive cells by flow cytometry 3 d after transfection.

[2] = system: xenograft tumors derived from the SK-N-BE2(c) cells; assay: SK-N-BE(2)c xenograft tumor model in nude mice; assay type: in vivo, mouse; details: n = 10/group, intratumoral injection 3 times a week, vs PBS or R9-srbPep
Procedure: All experiments involving live animals were carried out in strict accordance with the recommendations in the Guide for the Care and Use of Laboratory Animals of the National Institutes of Health. The protocol (#11034) was reviewed and approved by the City of Hope Institutional Animal Care and Use Committee. Nude mice 6 weeks of age were purchased from the Jackson Laboratory (Bar Harbor, ME). SK-N-BE(2)c cells were harvested and washed twice in PBS. Cells were suspended in Matrigel (BD Biosciences) at 5×10^7/ml. 0.1 ml of suspended cells was subcutaneously injected into the right flank of each of 30 nude mice. Seven days after tumor inoculation, mice were randomly grouped into three groups with 10 mice in each group. The mice were treated with PBS, R9-srbPep, or R9-caPep 3 times a week by intratumoral injection. Tumor growth was measured weekly as well as at the end of the experiment by a dial caliper. Tumor volumes were estimated based on the length (L) and width (W) of the tumors (V = L×W^2×0.5). At the end of the experiment, tumors were isolated from sacrificed mice and their masses were measured.

panel of NB cell lines = assay type: cell-based, human; details: 72 h
Procedure: The human NB cell lines, SK-N-DZ, SK-N-BE(2)c, SK-N-AS, SK-N-SH, and SK-N-FI were obtained from the American Type Culture Collection (Rockville, MD). Cells were maintained in DMEM with 10% fetal bovine serum (FBS), 100 units/ml penicillin, and 100 µg/ml streptomycin in the presence of 5% CO2 at 37°C. Human PBMCs from a healthy donor were purchased from Sanguine BioSciences (Valencia, CA) and grown in RPMI1640 with10% FBS, 100 units/ml penicillin, 100 µg/ml streptomycin, and 10 ng/ml IL-2 in the presence of 5% CO2 at 37°C. Human embryonic progenitor cell line 7SM0032 was acquired from Millipore (Billerica, MA) and grown in the hEPM-1 Media Kit purchased from the same company.
(§1) To measure cell growth, cells were seeded at 3×10^4/ml. After being allowed to attach overnight, cells were treated with various concentrations of the peptides for 72 h. Cell growth was measured by the CellTitor-Glo assay (Promega, Madison, WI) according to manufacturer's instruction. To measure apoptosis, cells were seeded at 1×10^5/ml onto a chamber slide. Once attached, cells were treated with the peptides for 48 h. Cells were fixed and analyzed by a TUNEL assay using the TMR red in situ cell death detection kit (Roche Diagnostics, Indianapolis, IN).

[3] = system: PCNA and FEN1 co-localization in SK-N-AS NB cells; assay: PCNA/FEN1 co-localization, immunofluorescence; assay type: cell-based, human; details: synchronized, 30 µM peptide 6 h after mimosine release
Procedure: Cells were seeded at 1×10^5/ml onto a chamber slide and were allowed to attach overnight. To analyze the interaction of PCNA with FEN1, LIGI, or Pol ä, we first synchronize cells at the G1/S boundary. The synchronization is achieved by starving cells in medium containing 0.25% FBS for 24 h. Cells were further cultured in the complete medium containing 400 µM of mimosine for 24 h. To release cells into S phase, cells were washed and incubated in mimosine-free medium containing 30 µM R9-caPep or R9-srbPep for 6 h. We pre-determined that the majority of cells were in the S-phase 6 h after mimosine was removed (data not shown). Cells were fixed in ice-cold methanol:acetone (50%:50%) for 10 min or in 4% paraformaldehyde for 20 min at room temperature. Cells were incubated with a goat polyclonal anti-PCNA antibody (Santa Cruz) and a mouse monoclonal anti-FEN1 antibody (Santa Cruz), a mouse anti-POLD3 antibody (Sigma, St. Louis, MO), or a mouse anti-LIGI antibody (Abcam, Cambridge, MA) for 1 h at room temperature. After being washed with PBS, cells were incubated with Alexa Fluor 488 conjugated anti-mouse IgG and Alexa Fluor 555 conjugated anti-goat IgG antibodies (Invitrogen, Grand Island, NY) for 1 h. Cells were mounted in Vectashield with DAPI (Vector Labs, Burlingame, CA) and visualized by a confocal microscope.

[4] = system: non-malignant 7SM0032 cells; assay: Cell cycle analysis by PI flow cytometry, 7SM0032; assay type: cell-based, human; details: 7SM0032, same treatment (40 µM, 48 h), vs NB cells
Procedure: Cells were seeded at 1×10^5/ml. Once attached, cells were treated with or without R9-caPep for 48 hours. Cells were fixed in 60% ethanol and stained with propidium iodide (PI). The cellular PI fluorescence intensity was determined by flow cytometry. The flow cytometry data were analyzed by the FlowJo program to model various cell populations.

PCNA and p21 interaction = PCNA and p21 interaction in vitro; assay type: binding; details: data not shown
SK-N-BE(2)c cells = assay: Clonogenic assay; assay type: cell-based, human; details: 3 dishes averaged
Procedure: Three hundred fifty SK-N-BE(2)c cells were seeded onto a 60-mm tissue culture dish. Once attached overnight, cells were treated with or without cisplatin for 2 h. Cells were washed twice with growth medium and were cultured in fresh medium with or without R9-caPep for 3 weeks to allow colony formation. The medium was changed every 3 d. The colonies formed under each treatment conditions were counted after being stained with 0.5% crystal violet.

[5] = system: non-malignant 7SM0032 cells; assay: TUNEL apoptosis assay, 7SM0032; assay type: cell-based, human; details: 7SM0032, same treatment (40 µM, 48 h), vs NB cells
Procedure: as §1

Structure (SMILES): CC[C@H](C)[C@H](NC(=O)CNC(=O)[C@H](CC(C)C)NC(=O)[C@H](CS)NC(=O)[C@H](CS)NC(=O)[C@@H](CCCNC(=N)N)NC(=O)[C@@H](CCCNC(=N)N)NC(=O)[C@@H](CCCNC(=N)N)NC(=O)[C@@H](CCCNC(=N)N)NC(=O)[C@@H](CCCNC(=N)N)NC(=O)[C@@H](CCCNC(=N)N)NC(=O)[C@@H](CCCNC(=N)N)NC(=O)[C@@H](CCCNC(=N)N)NC(=O)[C@H](N)CCCNC(=N)N)C(=O)N1CCC[C@H]1C(=O)N[C@@H](CCC(=O)O)C(=O)N[C@@H](CCC(N)=O)C(=O)N[C@@H](CCC(=O)O)C(=O)N[C@@H](Cc1ccc(O)cc1)C(=O)O [R9-caPep] (H-[dR][dR][dR][dR][dR][dR][dR][dR][dR]CCLGIPEQEY-OH; N-terminus and C-terminus assumed)
- HR-mediated DNA repair [1]: significantly inhibited HR-mediated DNA repair
- tumor growth (tumor mass) ([2]; end of experiment): significantly and nearly completely inhibited tumor growth
- tumor growth (tumor volume) ([2]; ** p<0.01): significantly and nearly completely inhibited tumor growth
- IC50 (panel of NB cell lines): 10 to 32 µM
- sensitivity of MYCN-amplified vs. non-amplified NB cell lines (panel of NB cell lines; CellTiter-Glo): NB cell lines with MYCN amplification were uniformly more sensitive to R9-caPep than NB cell lines without MYCN amplification
- FEN1 co-localization with PCNA foci [3]: didn't appear to overlap the PCNA foci
- effect on cell cycle progression in non-malignant cells [4]: significantly less effect on cell cycle progression and cell survival
- effect on PCNA and p21 interaction (PCNA and p21 interaction): did not block PCNA and p21 interaction in vitro
- reduction of number of colonies, sequential cisplatin then R9-caPep (SK-N-BE(2)c cells; 1 µM cisplatin 2 h, then 20 µM R9-caPep 3 weeks): about 80%
- reduction of number of colonies, single agent (SK-N-BE(2)c cells; R9-caPep alone 20 µM 3 weeks, or cisplatin alone 1 µM 2 h): less than 30%
- effect on cell survival in non-malignant cells [5]: significantly less effect on cell cycle progression and cell survival
